Consider two substances from patent publication US20140065122A1, “Method for Removing a Microorganism Biofilm” (priority 2010, published 2014).

Test [1] deals with Staphylococcus aureus RN4220 GFP biofilm. The experiment in a line: Example 2: Staphylococcus aureus biofilm treated with lysostaphin with or without pretreatment by swimming Bacillus thuringiensis 407, residual biovolume. The test is classed as cell-based. Here is the method: The strains of bacteria used for these experiments correspond to strains of Staphylococcus aureus RN4220 GFP and Bacillus thuringiensis 407 described in Table I.
The target biofilms of Staphylococcus aureus RN4220 GFP cultivated in microplates and the Bacillus thuringiensis 407 cultures used are obtained according to the method described previously.
On a microplate containing 24-hour biofilms of Staphylococcus aureus RN4220 GFP having a thickness of more than 30 μm, one carefully removes 250 μL of supernatant from each well. 250 μL of culture medium (control) or suspension of Bacillus thuringiensis 407 calibrated at 10^8 cells/mL are then added into each well.
The Staphylococcus aureus biofilms in the presence or not of swimming bacteria are then incubated at 37° C. for 4 hours.
These target biofilms, sensitized or not for 4 hours by a cocktail of swimming bacteria, are then treated by adding into the wells 250 μL of lysostaphin in a concentration range of 0 to 0.5 μg/ml.
The same experimental device as the one described in the first experiment was used to quantify the effectiveness of treatment (comparison between the residual biovolume of the target biofilm during activity of the lysostaphin with or without pretreatment and a cocktail of swimming bacteria).

For test [2] the test system is unchanged. In words: Examples 4 and 5: log reduction of Staphylococcus aureus biofilm after bacterial pretreatment followed by benzalkonium chloride. In kind it is cell-based. To be noted: Example 5; treatment with C14 benzalkonium chloride after pretreatment with the named strain(s). The protocol:
The target biofilms of Staphylococcus aureus RN4220 GFP cultivated in microplates and bacilli cultures used are obtained according to the method previously described for Bacillus thuringiensis 407.
On a microplate containing 24-hour biofilms of Staphylococcus aureus RN4220 GFP having a thickness greater than 30 μm, one carefully removes 250 μL of supernatant from each well. 250 μL of culture medium (control) or suspension of: • Bt • BtΔfla • Bl • or Bt+Bl at equal concentrations, calibrated at 10^8 cells/mL are then added to each well.
The Staphylococcus aureus biofilms in the presence or not of bacteria are then incubated at 37° C. for 4 hours to allow infiltration of swimming bacteria. The supernatants are eliminated prior to placement into contact with the biocide.
These target biofilms are then treated by adding to the wells 200 μL of C14 benzalkonium chloride (BAC, Fluka, Buchs, Switzerland) at a concentration of 750 ppm, or 200 μl of […] sodium chloride (NaCl) (“non-treated” biofilm. […]
The surviving S. aureus are counted on TSA agar after serialized dilutions in 150-mM NaCI and incubation for 24 hours at 37° C.
The log 10 reductions of the S. aureus bacteria are calculated by comparing the relationship of the surviving ones in the disinfected biofilms to the population of non-treated biofilms. […]

As for lysostaphin, the “eradication of the target biofilm by the antimicrobial compound alone” value in test [1] (lysostaphin concentration <0.5 μg/ml, without pretreatment) is on record as “does not allow eradication”. Besides, the “effectiveness on the target biofilm after pretreatment with a cocktail of swimming bacteria” value in test [1] (pretreatment Bacillus thuringiensis 407 10^8 cells/mL 4 hours, lysostaphin 0 to 0.5 μg/ml, P<0.05) is “improved”. Turning to C14 benzalkonium chloride, the “Log reduction (+/−0.2)” value in test [2] is listed as −0.9 log.
